Experimental data from article PMC10282731, “Pyrrolo[2,3-e]indazole as a novel chemotype for both influenza A virus and pneumococcal neuraminidase inhibitors” (RSC Advances, 2023).
Values after ≈ are worked out from the molar mass of the structure shown. Values joined by “and” are separate entries in the source; they are usually repeats but may differ in a detail not shown here. Equal entries are not always repeated. Where two headings read alike, the source gives them in different places. Marks after values point to notes of the source that are not given here.

Key:
[1] = in vitro; settings: dog
[2] = system: influenza A virus A/HK/1/68 (subtype H3N2); assay: Influenza A virus-induced CPE inhibition assay in MDCK cells (A/HK/1/68); assay type: cell-based; settings: H3N2, 48 h, maximum 100 µM, n.a. = not active, read-out: IC50 (IAV) HK/1/68
[3] = system: influenza A virus A/Jena/8178/09 (subtype A(H1N1)pdm09); assay: Influenza A virus-induced CPE inhibition assay in MDCK cells (A/Jena/8178/09); assay type: cell-based; settings: A(H1N1)pdm09, 48 h, maximum 100 µM, n.a. = not active, read-out: IC50 (IAV) Jena/8178
[4] = system: neuraminidase of influenza A virus (IAV NA); assay: Human erythrocyte-based (hemagglutination-based) viral neuraminidase inhibition assay; assay type: biochemical, influenza A virus A/Jena/8178/09; settings: human erythrocytes, 37 °C for 24 h, maximum 100 µM for test compounds
[5] = molecular target: viral hemagglutinin (Influenza A virus, UniProt C3W5S1); assay: Human erythrocyte-based assay, inhibition of viral hemagglutinin-induced hemagglutination at 4 °C; assay type: biochemical; settings: human erythrocytes, influenza A virus A/Jena/8178/09
Chain of viral hemagglutinin (C3W5S1 18-344 limits assumed): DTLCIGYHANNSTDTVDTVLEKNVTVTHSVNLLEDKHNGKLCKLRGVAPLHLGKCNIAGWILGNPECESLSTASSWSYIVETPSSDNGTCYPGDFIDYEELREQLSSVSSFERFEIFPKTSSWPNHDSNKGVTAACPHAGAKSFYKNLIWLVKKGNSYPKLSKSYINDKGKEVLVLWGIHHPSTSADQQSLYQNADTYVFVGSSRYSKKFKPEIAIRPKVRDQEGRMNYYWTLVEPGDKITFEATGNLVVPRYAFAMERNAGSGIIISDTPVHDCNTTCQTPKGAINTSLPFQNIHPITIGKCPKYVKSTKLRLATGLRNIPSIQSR
Chain of viral hemagglutinin (C3W5S1 345-566 limits assumed): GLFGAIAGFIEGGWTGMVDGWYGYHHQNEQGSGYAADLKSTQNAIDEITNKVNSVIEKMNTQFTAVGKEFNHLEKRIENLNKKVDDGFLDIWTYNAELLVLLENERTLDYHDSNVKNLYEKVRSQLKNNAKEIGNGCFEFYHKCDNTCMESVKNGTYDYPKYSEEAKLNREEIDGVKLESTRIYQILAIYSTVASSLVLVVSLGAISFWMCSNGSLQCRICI

[6] = molecular target: T1, neuraminidase NanA of S. pneumoniae strain DSM20566 (Streptococcus pneumoniae, UniProt P62575); assay: Lectin-based hemagglutination NA inhibition assay with pneumococcal neuraminidase; assay type: biochemical; settings: ethanol-precipitated proteins of S. pneumoniae DSM20566, lectin-based hemagglutination assay
T1 sequence (P62575 54-1035): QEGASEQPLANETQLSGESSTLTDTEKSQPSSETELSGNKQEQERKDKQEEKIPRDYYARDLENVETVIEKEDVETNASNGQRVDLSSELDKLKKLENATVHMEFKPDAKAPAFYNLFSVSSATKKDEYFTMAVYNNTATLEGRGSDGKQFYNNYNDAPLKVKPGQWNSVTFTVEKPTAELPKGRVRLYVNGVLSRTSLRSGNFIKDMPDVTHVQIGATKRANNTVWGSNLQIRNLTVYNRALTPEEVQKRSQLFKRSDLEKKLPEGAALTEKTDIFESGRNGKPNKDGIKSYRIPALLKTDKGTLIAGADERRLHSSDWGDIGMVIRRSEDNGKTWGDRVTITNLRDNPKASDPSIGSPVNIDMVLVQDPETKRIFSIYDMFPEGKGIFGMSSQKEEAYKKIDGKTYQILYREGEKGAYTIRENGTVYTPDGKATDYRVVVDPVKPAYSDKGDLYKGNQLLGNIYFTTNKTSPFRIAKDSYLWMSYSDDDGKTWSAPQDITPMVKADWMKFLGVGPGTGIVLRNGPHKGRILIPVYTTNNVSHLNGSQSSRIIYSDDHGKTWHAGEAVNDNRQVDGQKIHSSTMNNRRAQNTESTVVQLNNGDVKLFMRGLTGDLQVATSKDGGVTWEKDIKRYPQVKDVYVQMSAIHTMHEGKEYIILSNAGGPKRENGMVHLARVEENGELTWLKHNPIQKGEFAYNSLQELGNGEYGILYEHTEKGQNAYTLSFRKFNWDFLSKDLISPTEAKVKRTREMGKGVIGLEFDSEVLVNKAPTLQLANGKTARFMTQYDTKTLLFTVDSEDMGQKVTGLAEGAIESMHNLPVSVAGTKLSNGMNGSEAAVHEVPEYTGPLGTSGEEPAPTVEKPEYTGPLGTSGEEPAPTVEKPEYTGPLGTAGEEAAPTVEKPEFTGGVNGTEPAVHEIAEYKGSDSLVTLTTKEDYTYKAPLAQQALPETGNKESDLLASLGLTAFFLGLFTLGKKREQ

[7] = system: S. pneumoniae DSM20566; assay: Planktonic growth inhibition, microtiter broth microdilution assay; assay type: cell-based, Streptococcus pneumoniae; settings: read-out: IC50 Planktonic growth
[8] = system: S. pneumoniae DSM20566; assay: Biofilm formation inhibition assay (crystal violet); assay type: cell-based, Streptococcus pneumoniae; settings: read-out: IC50 Biofilm formation
[9] = system: MDCK cells; settings: read-out: CC50 (MDCK), 72 h incubation, maximum 100 µM
[10] = molecular target: T1, neuraminidase NanA of S. pneumoniae strain DSM20566; settings: Published; cited from earlier work
[11] = Streptococcus pneumoniae, DSM20566, 18 h
[12] = Streptococcus pneumoniae, S. pneumoniae DSM20566, 24 h, crystal violet, maximum 50 μM

Row | Compound | melting point [°C] | CC50 at 72 h [1] [µM] | IC50 ([3]; Influenza A virus) [µM] | MIC IAV NA (minimum neuraminidase inhibitory concentration) [4] | MIC S.p. NanA (minimum neuraminidase inhibitory concentration) [6] | further results
1 | CCOC(=O)c1c(C)n(Cc2ccccc2)c2c1cc(O)c1c2c(-c2ccc([N+](=O)[O-])cc2)nn1-c1ccccc1 [Compound 6g, 1-Benzyl-5-hydroxy-3-ethoxycarbonyl-2-methyl-8-(4-nitrophenyl)-6-phenyl-pyrrolo[2,3-e]indazole] | 226 to 228 | – | – | – | – | CC50 [1]: > 100 µM
2 | CCOC(=O)c1c(C)[nH]c2c1cc(O)c1c2c(-c2ccc(CC)cc2)nn1-c1ccccc1 [Compound 6j] | – | > 100 | – | – | – | IC50 ([2]; Influenza A virus): 52.2 µM
3 | CCOC(=O)c1c(C)[nH]c2c1cc(OC(C)=O)c1c2c(-c2ccc(N)cc2)nn1-c1ccccc1 [Compound 13] | – | > 100 | 14.1 | 14.20 µM (≈ 6.65 µg/mL) | – | IC50 ([2]; Influenza A virus): 9.39 µM; Inhibition of hemagglutination (concentration) [5]: 31.6 µM
4 | CCOC(=O)c1c(C)n(C)c2c1cc(O)c1c2c(-c2ccc([N+](=O)[O-])cc2)nn1-c1ccccc1 [Compound 6f, 5-Hydroxy-3-ethoxycarbonyl-1,2-dimethyl-8-(4-nitrophenyl)-6-phenyl-pyrrolo[2,3-e]indazole] | 258 to 261 | > 100 | – | 77.20 µM (≈ 36.3 µg/mL) | 31.60 µM (≈ 14.9 µg/mL) | IC50 ([2]; Influenza A virus): 42.5 µM
5 | 5-Hydroxy-3-ethoxycarbonyl-2-methyl-6-phenyl-8-[4-(trifluoromethyl)phenyl]-pyrrolo[2,3-e]indazole [Compound 6h] | – | – | – | 24.40 µM | 10.0 µM and 10.00 µM | IC50 [2]: 30.5 µM; IC50 [3]: 24.8 µM; IC50 ([7]; S. pneumoniae DSM20566, 18 h, OD 620 nm, maximum 50 μM): 50 µM; IC50 ([8]; S. pneumoniae DSM20566, 24 h, crystal violet, maximum 50 μM): 40.1 µM; CC50 [9]: > 100 µM
6 | CCOC(=O)c1c(C)[nH]c2c1cc(OC(C)=O)c1c2c(-c2ccc([N+](=O)[O-])cc2)nn1-c1ccccc1 [Compound 11e] | – | > 100 | 16.7 | 17.20 µM (≈ 8.57 µg/mL) | 10.0 µM and 10.00 µM | –
7 | CCOC(=O)c1c(CN(CC)CC)n(C)c2c1cc(OC(C)=O)c1c2c(-c2ccccc2)nn1-c1ccccc1 [Compound 9b] | – | > 100 | 53.2 | 77.20 µM (≈ 41.6 µg/mL) | 24.40 µM (≈ 13.1 µg/mL) | –
8 | CCOC(=O)c1c(C)n(-c2ccc(OC)cc2)c2c1cc(O)c1c2c(-c2ccccc2)nn1-c1ccccc1 [Compound 6d, 5-Hydroxy-3-ethoxycarbonyl-1-(4-methoxyphenyl)-2-methyl-6,8-diphenyl-pyrrolo[2,3-e]indazole] | 277 to 279 | > 100 | 38.6 | 54.40 µM (≈ 28.2 µg/mL) | 17.20 µM (≈ 8.9 µg/mL) | –
9 | CCOC(=O)c1c(C)[nH]c2c1cc(O)c1c2c(-c2ccc(N)cc2)nn1-c1ccccc1 [Compound 12] | – | > 100 | 15.7 | 21.40 µM (≈ 9.13 µg/mL) | 10.0 µM and 10.00 µM | IC50 ([2]; Influenza A virus): 8.54 µM
10 | CCOC(=O)c1c(CN2CCCCC2)n(C)c2c1cc(OC(C)=O)c1c2c(-c2ccccc2)nn1-c1ccccc1 [Compound 9a] | 203 to 205 | > 100 | – | does not inhibit | 54.40 µM (≈ 30 µg/mL) | –
11 | CCOC(=O)c1c(C)n(C)c2c1cc(O)c1c2c(-c2ccccc2)nn1-c1ccccc1 [Compound 6b, 5-Hydroxy-3-ethoxycarbonyl-1,2-dimethyl-6,8-diphenyl-pyrrolo[2,3-e]indazole] | 270 to 272 | > 100 | 31.6 | 31.60 µM (≈ 13.4 µg/mL) | 31.60 µM (≈ 13.4 µg/mL) | –
12 | CCOC(=O)c1c(C)n(Cc2ccccc2)c2c1cc(O)c1c2c(-c2ccccc2)nn1-c1ccccc1 [Compound 6c, 1-Benzyl-5-hydroxy-3-ethoxycarbonyl-2-methyl-6,8-diphenyl-pyrrolo[2,3-e]indazole] | 256 to 258 | – | 71.1 | 77.20 µM (≈ 38.7 µg/mL) | 24.40 µM (≈ 12.2 µg/mL) | IC50 [7, 11]: 8.9 µM; IC50 ([8]; Streptococcus pneumoniae, DSM20566, 24 h): 0.93 µM; CC50 [1]: > 100 µM
13 | CCOC(=O)c1c(C)n(C)c2c1cc(OC)c1c2c(-c2ccc([N+](=O)[O-])cc2)nn1-c1ccccc1 [Compound 11a] | – | > 100 | 21.5 | 24.40 µM (≈ 11.8 µg/mL) | 31.60 µM (≈ 15.3 µg/mL) | –
14 | CCOC(=O)c1c(CN2CCCCC2)n(C)c2c1cc(O)c1c2c(-c2ccccc2)nn1-c1ccccc1 [Compound 10a] | 285 | > 100 | 86.7 | 54.40 µM (≈ 27.7 µg/mL) | 31.60 µM (≈ 16.1 µg/mL) | IC50 ([7]; Streptococcus pneumoniae, S. pneumoniae DSM20566, 18 h, OD 620 nm, maximum 50 μM): 6.88 µM; IC50 [8, 12]: 3.31 µM
15 | CCOC(=O)c1c(C)[nH]c2c1cc(O)c1c2c(-c2ccc(-n3cccc3)cc2)nn1-c1ccccc1 [Compound 14] | – | > 100 | 11.4 | 24.40 µM (≈ 11.6 µg/mL) | 10.0 µM and 10.00 µM | IC50 [8, 12]: 28 µM
16 | 5-Hydroxy-3-ethoxycarbonyl-2-methyl-8-(4-nitrophenyl)-6-phenyl-pyrrolo[2,3-e]indazole [Compound 6e] | – | – | – | 54.40 µM | 14.32 µM | IC50 [2]: 16.4 µM; IC50 [3]: 19.5 µM; CC50 [9]: > 100 µM
17 | CCOC(=O)c1c(C)n(CC)c2c1cc(OCC)c1c2c(-c2ccc([N+](=O)[O-])cc2)nn1-c1ccccc1 [Compound 11b] | 175 to 177 | – | 25.5 | 77.20 µM (≈ 39.6 µg/mL) | 54.40 µM (≈ 27.9 µg/mL) | CC50 [1]: > 100 µM
18 | 5-hydroxy-3-ethoxycarbonyl-2-methyl-6,8-diphenyl-pyrrolo[2,3-e]indazole [Compound 6a] | – | – | – | 70.00 µM | 31.60 µM | CC50 [9]: > 100 µM
19 | CCOC(=O)C1=C[C@@H](OC(CC)CC)[C@H](NC(C)=O)[C@@H](N)C1 [Oseltamivir, oseltamivir, reference compound] | – | – | – | 1.97 µM (≈ 0.615 µg/mL) | – | IC50 [2]: 0.004 µM; IC50 [3]: 0.14 µM; MIC S.p. NanA (minimum neuraminidase inhibitory concentration) [10]: 2.08 ^a μM
20 | CCOC(=O)c1c(C)n(C)c2c1cc(OC(C)=O)c1c2c(-c2ccccc2)nn1-c1ccccc1 [Compound 7a] | 214 to 216 | > 100 | 83.7 | 100.00 µM (≈ 46.8 µg/mL) | 31.60 µM (≈ 14.8 µg/mL) | –
21 | CC(=O)N[C@H]1[C@H]([C@H](O)[C@H](O)CO)OC(C(=O)O)=C[C@@H]1N=C(N)N [Zanamivir, zanamivir, reference compound] | – | – | 0.11 | 3.16 µM (≈ 1.05 µg/mL) | – | –
22 | CCOC(=O)c1c(C)[nH]c2c1cc(O)c1c2c(-c2cc(Cl)cc(Cl)c2)nn1-c1ccccc1 [Compound 6k] | – | > 100 | – | – | – | IC50 ([2]; Influenza A virus): 30.2 µM
23 | CCCCCOc1cc2c(C(=O)OCC)c(C)[nH]c2c2c(-c3ccc([N+](=O)[O-])cc3)nn(-c3ccccc3)c12 [Compound 11d] | – | > 100 | 26.5 | – | – | –
24 | CCOC(=O)c1c(C)[nH]c2c1cc(OCC)c1c2c(-c2ccc([N+](=O)[O-])cc2)nn1-c1ccccc1 [Compound 11c] | – | > 100 | 30.3 | 47.20 µM (≈ 22.9 µg/mL) | 54.40 µM (≈ 26.4 µg/mL) | –
25 | CCOC(=O)c1c(C)n(Cc2ccccc2)c2c1cc(OC(C)=O)c1c2c(-c2ccccc2)nn1-c1ccccc1 [Compound 7b] | – | – | 38.7 | 100.00 µM (≈ 54.4 µg/mL) | 31.60 µM (≈ 17.2 µg/mL) | CC50 [1]: > 100 µM
26 | CCOC(=O)c1c(CN2CCOCC2)n(Cc2ccccc2)c2c1cc(O)c1c2c(-c2ccccc2)nn1-c1ccccc1 [Compound 10b] | 145 to 146 | – | 33.2 | 54.40 µM (≈ 31.9 µg/mL) | 10.0 µM and 10.00 µM | IC50 [7, 11]: 7.57 µM; CC50 [1]: > 100 µM
